Experimental data as given in patent US20210002231A1 (Centre National de la Recherche Scientifique, priority 2018, published 2021).
Starred links: 1 amine or outer side, 2 acyl side, 3 side chain; linkers in the order of their positions; H or OH if unused. Non-standard residues stand in square brackets, D forms with d. Residues, ends and D or L forms follow the SMILES beside them. *: point of attachment. X1 = O=C1[C@@H](N[*:1])Cc2ccccc2CN1CCC(=O)[*:2]; Dmt = Cc1cc(O)cc(C)c1C[C@H](N)C(=O)O; X2 = c1ccc2[nH]c(*)nc2c1; X3 = c1ccc2oc(*)nc2c1

Tests used:
NPFF2R [1] = molecular target: T1, NPFF2R (Homo sapiens, UniProt Q9Y5X5); test: [35S]-GTPγS binding assay; assay type: biochemical; set-up: expressed in transfected cells;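 for Emax: Emax relative to NPFF as 100%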
Procedure: (§1) Stimulation by endogenous RF-amide peptides or test compounds for [^35S]-GTPγS binding to membranes from CHO cells expressing human NPFF1R or NPFF2R, were examined as reported. 1.6. Glo-Sensor cAMP Assay cAMP accumulation assay was essentially done as described with the following modifications: HEK293 cells stably expressing cAMP Glosensor-20F were used, with or without additional stable expression of each individual opioid receptor or NPFF1R. The cAMP responses were measured in presence of D-luciferin (1 mM).

human NPFF1R [2] = molecular target: T2, human NPFF1R (Homo sapiens, UniProt Q9GZQ6); test: [35S]-GTPγS binding assay; assay type: biochemical; set-up: expressed in transfected cells; details: for Emax: relative to RFRP3
Procedure: as §1

human MOPr [3] = molecular target: T3, human MOPr (Homo sapiens, UniProt P35372); test: Radioligand competition binding with [3H]-diprenorphine; set-up: expressed in transfected cells; HEK293-Glo20F cells (cAMP)
human NPFF1R [4] = molecular target: T2, human NPFF1R; test: Radioligand competition binding with [125I]-1-DMe-NPFF; set-up: expressed in transfected cells; HEK293-Glo20F cells (cAMP)
NPFF2R [5] = molecular target: T1, NPFF2R; test: as above; set-up: expressed in transfected cells; HEK293-Glo20F cells (cAMP)
human MOPr [6] = molecular target: T3, human MOPr; test: cell-based; assay type: cell-based; set-up: expressed in transfected cells; HEK293-Glo20F cells (cAMP); details: for EC50: Table 3a, HEK293-Glo20F-hMOPr cells, read-out: MOPr (cAMP) EC50; for Emax: read-out: MOPr (cAMP) Emax
Procedure: as §1
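Throughout, for MOPr (cAMP) Emax: Emax relative to DAMGO as 100%.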

T3 sequence (P35372 whole entry): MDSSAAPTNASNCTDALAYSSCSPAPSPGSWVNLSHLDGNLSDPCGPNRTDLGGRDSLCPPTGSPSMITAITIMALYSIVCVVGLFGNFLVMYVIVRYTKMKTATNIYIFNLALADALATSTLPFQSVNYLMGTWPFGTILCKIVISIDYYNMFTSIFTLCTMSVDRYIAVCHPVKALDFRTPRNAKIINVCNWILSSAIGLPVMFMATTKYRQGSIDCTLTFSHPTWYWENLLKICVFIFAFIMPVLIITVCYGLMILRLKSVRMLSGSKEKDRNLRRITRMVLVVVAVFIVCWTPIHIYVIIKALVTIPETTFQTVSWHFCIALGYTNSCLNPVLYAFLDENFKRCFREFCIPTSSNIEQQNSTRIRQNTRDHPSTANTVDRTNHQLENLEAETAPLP
T1 sequence (Q9Y5X5 whole entry): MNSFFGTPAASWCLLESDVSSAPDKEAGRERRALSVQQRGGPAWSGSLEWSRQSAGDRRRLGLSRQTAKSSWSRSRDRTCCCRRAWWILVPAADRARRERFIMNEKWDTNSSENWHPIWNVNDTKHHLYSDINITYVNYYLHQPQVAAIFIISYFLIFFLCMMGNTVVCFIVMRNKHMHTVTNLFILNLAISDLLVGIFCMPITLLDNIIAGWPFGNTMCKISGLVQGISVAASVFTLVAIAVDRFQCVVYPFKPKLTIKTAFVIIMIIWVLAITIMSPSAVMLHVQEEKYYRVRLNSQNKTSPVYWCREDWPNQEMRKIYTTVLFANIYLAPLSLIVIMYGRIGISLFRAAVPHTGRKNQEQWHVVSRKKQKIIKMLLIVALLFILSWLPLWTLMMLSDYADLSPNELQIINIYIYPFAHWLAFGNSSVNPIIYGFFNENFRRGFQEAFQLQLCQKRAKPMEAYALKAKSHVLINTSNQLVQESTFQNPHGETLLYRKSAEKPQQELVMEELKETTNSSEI
T2 sequence (Q9GZQ6 whole entry): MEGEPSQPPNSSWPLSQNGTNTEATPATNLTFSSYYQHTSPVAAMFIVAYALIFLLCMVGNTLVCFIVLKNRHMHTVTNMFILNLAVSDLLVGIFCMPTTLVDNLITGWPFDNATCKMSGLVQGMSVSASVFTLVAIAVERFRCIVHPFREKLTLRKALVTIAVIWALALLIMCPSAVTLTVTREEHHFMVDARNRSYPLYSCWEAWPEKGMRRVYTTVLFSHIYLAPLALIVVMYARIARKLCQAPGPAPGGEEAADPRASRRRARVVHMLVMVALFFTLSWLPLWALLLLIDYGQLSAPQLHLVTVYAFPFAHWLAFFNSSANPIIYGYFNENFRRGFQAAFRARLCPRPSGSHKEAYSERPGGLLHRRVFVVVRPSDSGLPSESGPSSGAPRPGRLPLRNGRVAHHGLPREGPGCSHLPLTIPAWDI

SMILES	EC50 (NPFF2R [1])	Emax (NPFF2R [1])	EC50 (human NPFF1R [2])	Emax (human NPFF1R [2])	Ki (human MOPr [3])	Ki (human NPFF1R [4])	Ki (NPFF2R [5])	EC50 (human MOPr [6])	Emax (human MOPr [6])
Cc1cc(O)cc(C)c1C[C@H](N)C(=O)N[C@H](CCCNC(=N)N)C(=O)N[C@H]1Cc2ccccc2CN(CC(=O)N[C@@H](CCCNC(=N)N)C(=O)N[C@@H](Cc2ccccc2)C(N)=O)C1=O [KGFF01, H-Dmt-D-Arg-Aba-Gly-Arg-Phe-NH2]	128 ± 23 nM	95 ± 6%	155 ± 25 nM	44 ± 8%	0.59 ± 0.21 nM	57 ± 10 nM	1.2 ± 0.5 nM	2.4 ± 1 nM	101 ± 7%
Cc1cc(O)cc(C)c1C[C@H](N)C(=O)N[C@H](CCCNC(=N)N)C(=O)N[C@H]1Cc2ccccc2CN(CC(=O)N[C@@H](CCCN)C(=O)N[C@@H](Cc2ccccc2)C(N)=O)C1=O [KGFF04, H-Dmt-D-Arg-Aba-Gly-Orn-Phe-NH2]	963 ± 168 nM	67 ± 3%	> 10000 nM	25 ± 4%	0.67 ± 0.29 nM	780 ± 90 nM	45 ± 8 nM	9.5 ± 1.5 nM	70 ± 4%
Cc1cc(O)cc(C)c1C[C@H](N)C(=O)N[C@H](CCCNC(=N)N)C(=O)N[C@@H](Cc1ccccc1)C(N)=O [KGFF07, H-Dmt-D-Arg-Phe-NH2] (HELM PEPTIDE1{[Cc1cc(O)cc(C)c1C[C@H](N)C(=O)[*:2]].[dR].F.[am]}$$$$V2.0)	1930 nM	87 ± 2%	87 ± 7 nM	84 ± 8%	0.29 ± 0.13 nM	11.8 ± 3.6 nM	84 ± 26 nM	1.7 ± 0.4 nM	102 ± 2%
Cc1cc(O)cc(C)c1C[C@H](N)C(=O)N[C@H](CCCNC(=N)N)C(=O)N[C@H]1Cc2ccccc2CN(CCC(=O)N[C@@H](CCCN2CCCCC2)C(=O)N[C@@H](Cc2ccccc2)C(N)=O)C1=O [KGFF08, H-Dmt-D-Arg-Aba-β-Ala-Apa-Phe-NH2]	574 ± 129 nM	97 ± 2%		23 ± 1%	0.94 ± 0.19 nM		3.9 ± 0.1 nM	9.9 ± 2 nM	102 ± 3%
Cc1cc(O)cc(C)c1C[C@H](N)C(=O)N[C@H](CCCNC(=N)N)C(=O)N[C@H]1Cc2ccccc2CNC1=O [KGFF12, H-Dmt-D-Arg-Aba-NH]	> 10000 nM	32 ± 17%	> 10000 nM	13 ± 3%	0.17 ± 0.05 nM	2490 nM	375 ± 108 nM	2.7 ± 1.5 nM	103 ± 4%
CNC(=O)[C@H](Cc1ccccc1)NC(=O)[C@@H](CCCNC(=N)N)NC(=O)[C@@H](N)Cc1c(C)cc(O)cc1C [KGFF13, H-Dmt-D-Arg-Phe-NHMe] (HELM PEPTIDE1{[Cc1cc(O)cc(C)c1C[C@H](N)C(=O)[*:2]].[dR].F.[CN[*:1]]}$$$$V2.0)	> 10000 nM	68 ± 8%	> 10000 nM	39 ± 2%	0.11 ± 0.05 nM	147 ± 16 nM	206 ± 47 nM	1 ± 0.4 nM	97 ± 2%
Cc1cc(O)cc(C)c1C[C@H](N)C(=O)N[C@H](CCCNC(=N)N)C(=O)N[C@H]1Cc2ccccc2CN(CCC(=O)N[C@@H](CCCCNc2nc3ccccc3[nH]2)C(=O)N[C@@H](Cc2ccccc2)C(N)=O)C1=O [KGFF14, H-Dmt-D-Arg-Aba-β-Ala-Lys(Bim)-Phe-NH2] (H-[Dmt][dR][X1]K(X2)F-NH2)	89 ± 7 nM	73 ± 18%	76 ± 26 nM	74 ± 1%	1.6 ± 0.3 nM	4.54 ± 0.01 nM	4.15 ± 1.35 nM	5.9 ± 2.5 nM	99 ± 4%
Cc1cc(O)cc(C)c1C[C@H](N)C(=O)N[C@H](CCCNC(=N)N)C(=O)N[C@H]1Cc2ccccc2CN(CCC(=O)N[C@@H](CCCCNc2nc3ccccc3o2)C(=O)N[C@@H](Cc2ccccc2)C(N)=O)C1=O [KGFF15, H-Dmt-D-Arg-Aba-β-Ala-Lys(Box)-Phe-NH2] (H-[Dmt][dR][X1]K(X3)F-NH2)	930 ± 210 nM	105 ± 15%	1020 nM	51 ± 5%	1.8 ± 0.9 nM	88 ± 8 nM	9.6 ± 0.6 nM	4.1 ± 1.7 nM	92 ± 13%
